In US10792289B2 (Horizon Orphan LLC, priority 2009, dated 2020):
Where two headings read alike, the source gives them in different places.

Test system: P. aeruginosa isolates
Test: Phase 2 study: MIC of P. aeruginosa isolates to levofloxacin
Type: cell-based
Settings: Pseudomonas aeruginosa
Experimental: Efficacy was evaluated by microbiologic assessment of sputum samples, time to need for anti-pseudomonal antimicrobials, the Cystic Fibrosis Questionaire-Revised (CFQ-R), and pulmonary function tests. […] Pair-wise comparisons between all the treatment arms were conducted as secondary analyses.

Work on `C[C@H]1COc2c(N3CCN(C)CC3)c(F)cc3c(=O)c(C(=O)O)cn1c23` [Levofloxacin, levofloxacin] yielded an MIC90 (672 h, MITT, combined 240 mg QD and BID, Day 28, read-out: Highest MIC, MIC90) of 32 µg/mL, an MIC50 (672 h, MITT, combined 240 mg QD and BID, Day 28, read-out: MIC50 (all organisms)) of 4 µg/mL and an MIC90 (672 h, MITT, combined 240 mg QD and BID, Day 28, read-out: MIC90 (all organisms)) of 16 µg/mL. The MIC50 (672 h, Table 14, EE, 120 mg QD, Day 28, read-out: MIC50 (all organisms)) was 8 µg/mL, the MIC90 (672 h, Table 14, EE, 120 mg QD, Day 28, read-out: MIC90 (all organisms)) was 32 µg/mL and the MIC50 (672 h, Table 14, EE, 240 mg BID, Day 28, read-out: MIC50 (all organisms)) was 8 µg/mL. The MIC90 (672 h, Table 14, EE, 240 mg BID, Day 28, read-out: MIC90 (all organisms)) was 32 µg/mL, the MIC50 (672 h, Table 14, EE, 240 mg QD, Day 28, read-out: MIC50 (all organisms)) was 8 µg/mL and the MIC90 (672 h, Table 14, EE, 240 mg QD, Day 28, read-out: MIC90 (all organisms)) was 16 µg/mL. It also gave an MIC50 (672 h, Table 14, EE, combined 240 mg QD and BID, Day 28, read-out: MIC50 (all organisms)) of 8 µg/mL, an MIC90 (672 h, Table 14, EE, combined 240 mg QD and BID, Day 28, read-out: MIC90 (all organisms)) of 32 µg/mL and an MIC (672 h, read-out: Highest MIC to levofloxacin, mean (SD), MITT, 120 mg QD, Day 28) of 12.7 µg/mL. The MIC (672 h, read-out: Highest MIC to levofloxacin, mean (SD), MITT, 240 mg BID, Day 28) was 17.9 µg/mL, the MIC (672 h, read-out: Highest MIC to levofloxacin, mean (SD), MITT, 240 mg QD, Day 28) was 9.17 µg/mL and the MIC (672 h, read-out: Highest MIC to levofloxacin, mean (SD), MITT, combined 240 mg QD and BID, Day 28) was 13.5 µg/mL. For the same compound, the MIC (672 h, read-out: MIC to levofloxacin (all organisms), mean (SD), EE, 120 mg QD, Day 28) was 8.9 µg/mL, the MIC (672 h, read-out: MIC to levofloxacin (all organisms), mean (SD), EE, 240 mg BID, Day 28) was 10.1 µg/mL and the MIC (672 h, read-out: MIC to levofloxacin (all organisms), mean (SD), EE, 240 mg QD, Day 28) was 6 µg/mL. It also gave an MIC (672 h, read-out: MIC to levofloxacin (all organisms), mean (SD), EE, combined 240 mg QD and BID, Day 28) of 8 µg/mL, an MIC (672 h, read-out: MIC to levofloxacin (all organisms), mean (SD), MITT, 120 mg QD, Day 28) of 8.8 µg/mL and an MIC (672 h, read-out: MIC to levofloxacin (all organisms), mean (SD), MITT, 240 mg BID, Day 28) of 9.9 µg/mL. For the same compound, the MIC (672 h, read-out: MIC to levofloxacin (all organisms), mean (SD), MITT, 240 mg QD, Day 28) was 5.9 µg/mL, the MIC (672 h, read-out: MIC to levofloxacin (all organisms), mean (SD), MITT, combined 240 mg QD and BID, Day 28) was 7.9 µg/mL and the MIC (672 h, read-out: MIC to levofloxacin (all organisms), mean (SD), Table 14, EE, 120 mg QD, Day 28) was 12.9 µg/mL. For the same compound, the MIC (672 h, read-out: MIC to levofloxacin (all organisms), mean (SD), Table 14, EE, 240 mg BID, Day 28) was 18 µg/mL, the MIC (672 h, read-out: MIC to levofloxacin (all organisms), mean (SD), Table 14, EE, 240 mg QD, Day 28) was 9.42 µg/mL and the MIC (672 h, read-out: MIC to levofloxacin (all organisms), mean (SD), Table 14, EE, combined 240 mg QD and BID, Day 28) was 13.6 µg/mL. For the same compound, the MIC50 (EE and MITT, 120 mg QD, baseline, read-out: MIC50 for P. aeruginosa isolates) was 8 µg/mL, the MIC90 (EE and MITT, 120 mg QD, baseline, read-out: MIC90 for P. aeruginosa isolates) was 32 µg/mL and the MIC50 (EE and MITT, 240 mg BID, baseline, read-out: MIC50 for P. aeruginosa isolates) was 6 µg/mL. For the same compound, the MIC90 (EE and MITT, 240 mg BID, baseline, read-out: MIC90 for P. aeruginosa isolates) was 32 µg/mL, the MIC50 (EE and MITT, 240 mg QD, baseline, read-out: MIC50 for P. aeruginosa isolates) was 4 µg/mL and the MIC90 (EE and MITT, 240 mg QD, baseline, read-out: MIC90 for P. aeruginosa isolates) was 32 µg/mL. The MIC (all patients, baseline (n=592 isolates), read-out: Median baseline MIC of all isolates) was 4 µg/mL, the MIC90 (read-out: Baseline MIC90 of all isolates) was 16 µg/mL and the MIC (read-out: Highest MIC to levofloxacin, mean (SD), MITT, 120 mg QD, Day 1) was 14.3 µg/mL. The MIC (read-out: Highest MIC to levofloxacin, mean (SD), MITT, 240 mg BID, Day 1) was 11.4 µg/mL, the MIC (read-out: Highest MIC to levofloxacin, mean (SD), MITT, 240 mg QD, Day 1) was 9.06 µg/mL and the MIC (read-out: Highest MIC to levofloxacin, mean (SD), MITT, combined 240 mg QD and BID, Day 1) was 10.2 µg/mL. It also gave an MIC (read-out: MIC to levofloxacin (all organisms), mean (SD), EE, 120 mg QD, Day 1) of 11.5 µg/mL, an MIC (read-out: MIC to levofloxacin (all organisms), mean (SD), EE, 240 mg BID, Day 1) of 6.8 µg/mL and an MIC (read-out: MIC to levofloxacin (all organisms), mean (SD), EE, 240 mg QD, Day 1) of 6.3 µg/mL. For the same compound, the MIC (read-out: MIC to levofloxacin (all organisms), mean (SD), EE, combined 240 mg QD and BID, Day 1) was 6.5 µg/mL, the MIC (read-out: MIC to levofloxacin (all organisms), mean (SD), MITT, 120 mg QD, Day 1) was 11 µg/mL and the MIC (read-out: MIC to levofloxacin (all organisms), mean (SD), MITT, 240 mg BID, Day 1) was 6.8 µg/mL. The MIC (read-out: MIC to levofloxacin (all organisms), mean (SD), MITT, 240 mg QD, Day 1) was 6.1 µg/mL, the MIC (read-out: MIC to levofloxacin (all organisms), mean (SD), MITT, combined 240 mg QD and BID, Day 1) was 6.4 µg/mL and the MIC (read-out: MIC to levofloxacin (all organisms), mean (SD), Table 14, EE, 120 mg QD, Day 1) was 15 µg/mL. It also gave an MIC (read-out: MIC to levofloxacin (all organisms), mean (SD), Table 14, EE, 240 mg BID, Day 1) of 11.6 µg/mL, an MIC (read-out: MIC to levofloxacin (all organisms), mean (SD), Table 14, EE, 240 mg QD, Day 1) of 9.35 µg/mL and an MIC (read-out: MIC to levofloxacin (all organisms), mean (SD), Table 14, EE, combined 240 mg QD and BID, Day 1) of 10.5 µg/mL.
